Measured values as given in patent US7285564B2, “Substituted 4-amino-1-(pyridylmethyl)piperidine and related compounds” (Theravance, Inc., priority 2002, dated 2007).

Biological target: T1, hM2 muscarinic receptor subtype (Homo sapiens, UniProt P08172)
T1 construct: expressed in transfected cells; membranes prepared
T1 sequence (P08172 1-466): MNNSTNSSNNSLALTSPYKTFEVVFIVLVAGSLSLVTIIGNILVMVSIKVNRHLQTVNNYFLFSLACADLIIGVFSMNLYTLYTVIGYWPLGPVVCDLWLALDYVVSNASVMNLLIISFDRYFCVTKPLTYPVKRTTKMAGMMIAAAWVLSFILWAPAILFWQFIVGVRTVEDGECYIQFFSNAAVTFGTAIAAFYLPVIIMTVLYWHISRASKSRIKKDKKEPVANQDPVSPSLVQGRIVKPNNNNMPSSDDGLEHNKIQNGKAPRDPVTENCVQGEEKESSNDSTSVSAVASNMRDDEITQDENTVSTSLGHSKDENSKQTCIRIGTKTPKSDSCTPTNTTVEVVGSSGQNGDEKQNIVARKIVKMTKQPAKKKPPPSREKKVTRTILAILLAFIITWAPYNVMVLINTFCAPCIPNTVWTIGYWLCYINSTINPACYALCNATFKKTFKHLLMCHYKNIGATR
Assay: Radioligand binding assay ([3H]NMS displacement), hM2
Conditions: [3H]NMS at 1 nM; membranes of CHO cells expressing hM2
Method: CHO (Chinese hamster ovary) cell lines stably expressing cloned human hM1, hM2, hM3 and hM4 muscarinic receptor subtypes, respectively, were grown to near confluency in medium consisting of HAM's F-12 supplemented with 10% FBS (Fetal Bovine Serum) and 250 μg/mL Geneticin. The cells were grown in a 5% CO2, 37° C. incubator and lifted with dPBS+2 mM EDTA. Cells were collected by 5 minute centrifugation at 650×g, and cell pellets were either stored frozen at −80° C. or membranes were prepared immediately. For membrane preparation, cell pellets were resuspended in lysis buffer and homogenized with a Polytron PT-2100 tissue disrupter (Kinematica AG; 20 seconds×2 bursts). Crude membranes were centrifuged at 40,000×g for 15 minutes at 4° C. […] Protein concentration of the membrane suspension was determined by the method of Lowry, O. et al., (1951) […]: 193, 265. […]
Radioligand binding assays were performed in 96-well microtiter plates in a total assay volume of 100 μL. […] Filter plates were rinsed three times with wash buffer (10 mM HEPES) to remove unbound radioactivity. […] The plates were then counted in a PerkinElmer Topcount liquid scintillation counter (PerkinElmer Inc., Wellesley, Mass.). Binding data were analyzed by nonlinear regression analysis with the GraphPad Prism Software package (GraphPad Software, Inc., San Diego, Calif.) using the one-site competition model. […]

Ki: < 1 nM
Compound: COc1ccncc1CN1CCC(N(CCCCCCCN2CC[C@@H](C(C(N)=O)(c3ccccc3)c3ccccc3)C2)C(C)C)CC1 [Example 1]
